According to patent US9249102B2 (priority 2012, dated 2016):

These compounds were tested on Haemonchus contortus (assay: Method A: Haemonchus contortus L1 larvae, microtitre plate screen). Settings: 96 h, read-out: motility inhibition.
Work on `O=C(CO[C@H]1CC[C@H](Nc2ccc([N+](=O)[O-])c(C(F)(F)F)c2)CC1)N1CCN(c2ccc3cc(Br)ccc3c2F)CC1` [Compound 267, 1-[4-(6-bromo-1-fluoro-naphthalen-2-yl)-piperazin-1-yl]-2-[4-(4-nitro-3-trifluoromethyl-phenylamino)-cyclohexyloxy]-ethanone] yielded an inhibition at 5 µg/mL of at least 90%. Work on `C[C@@H]1CN(Cc2ccc3cc(F)ccc3c2)[C@@H](C)CN1C(=O)CO[C@H]1CC[C@H](Nc2ccc([N+](=O)[O-])c(C(F)(F)F)c2)CC1` [Compound 357, 1-[(2R,5S)-4-(6-fluoro-naphthalen-2-ylmethyl)-2,5-dimethyl-piperazin-1-yl]-2-[4-(4-nitro-3-trifluoromethyl-phenylamino)-cyclohexyloxy]-ethanone] yielded an inhibition at 5 µg/mL of at least 90%. `O=C(NCCO[C@H]1CC[C@H](Nc2ccc([N+](=O)[O-])c(C(F)(F)F)c2)CC1)C(=O)Nc1ccc2cc(C(F)(F)F)ccc2c1` [Compound 173] showed an inhibition at 5 µg/mL of at least 90%. `O=C(NCCO[C@H]1CC[C@H](Nc2ccc([N+](=O)[O-])c(C(F)(F)F)c2)CC1)C(=O)Nc1ccc2cc(Cl)ccc2n1` [Compound 241, N^1-(6-chloroquinolin-2-yl)-N^2-(2-(-4-(4-nitro-3-(trifluoromethyl)phenylamino)cyclohexyloxy)ethyl)oxalamide] gave an inhibition at 5 µg/mL of at least 90%. For `C[C@@H]1CN(C(=O)CO[C@H]2CC[C@H](Nc3ccc([N+](=O)[O-])c(C(F)(F)F)c3)CC2)C[C@H](C)N1c1ccc2cc(F)ccc2n1` [Compound 381, 1-[(3S,5R)-4-(6-fluoro-quinolin-2-yl)-3,5-dimethyl-piperazin-1-yl]-2-[4-(4-nitro-3-trifluoromethyl-phenylamino)-cyclohexyloxy]-ethanone], the inhibition at 5 µg/mL was at least 90%. In the case of `N#Cc1ccc(N[C@H]2CC[C@H](OCC(=O)N3CCN(C(=O)C4Cc5cc(F)ccc5O4)CC3)CC2)cc1C(F)(F)F` (stereo partly shown) [Compound 86, 4-(4-{2-[4-(5-fluoro-2,3-dihydro-benzofuran-2-carbonyl)-piperazin-1-yl]-2-oxo-ethoxy}-cyclohexylamino)-2-trifluoromethyl-benzonitrile], the inhibition at 5 µg/mL is reported as at least 90%. With `CN(c1ccc(C#N)c(C(F)(F)F)c1)[C@H]1CC[C@H](OCC(=O)N2CCN(CC3Cc4cc(F)ccc4O3)CC2)CC1` (stereo partly shown) [Compound 280, 4-[(4-{2-[4-(5-fluoro-2,3-dihydro-benzofuran-2-ylmethyl)-piperazin-1-yl]-2-oxo-ethoxy}-cyclohexyl)-methyl-amino]-2-trifluoromethyl-benzonitrile] the inhibition at 5 µg/mL was at least 90%. In the case of `CC(CN1CCN(c2ccc3cc(F)ccc3c2)CC1)C(=O)N1CCC(Nc2ccc([N+](=O)[O-])c(C(F)(F)F)c2)CC1` (stereo not shown) [Compound 16, 3-[4-(6-fluoronaphthalen-2-yl)piperazin-1-yl]-2-methyl-1-(4-[[4-nitro-3-(trifluoromethyl)phenyl]amino]piperi-din-1-yl)propan-1-one], the inhibition at 5 µg/mL is reported as at least 90%. In the case of `O=C(CO[C@H]1CC[C@H](Nc2ccc([N+](=O)[O-])c(C(F)(F)F)c2)CC1)N1CCN(Cc2oc3ccc(F)cc3c2Cl)CC1` [Compound 312, 1-[4-(3-chloro-5-fluoro-benzofuran-2-ylmethyl)-piperazin-1-yl]-2-[4-(4-nitro-3-trifluoromethyl-phenylamino)-cyclohexyloxy]-ethanone], the inhibition at 5 µg/mL is reported as at least 90%. In the case of `O=C(NCCO[C@H]1CC[C@H](Nc2ccc([N+](=O)[O-])c(C(F)(F)F)c2)CC1)C(=O)Nc1ccc2ccccc2n1` [Compound 238, N^1-(2-(-4-(4-nitro-3-(trifluoromethyl)phenylamino)cyclohexyloxy)ethyl)-N^2-(quinolin-2-yl)oxalamide], the inhibition at 5 µg/mL is reported as at least 90%. `CN(c1ccc(C#N)c(C(F)(F)F)c1)[C@H]1CC[C@H](OCC(=O)N2CCN(c3ccc4cc(F)ccc4c3)CC2)CC1` [Compound 293, 4-[(4-{2-[4-(6-fluoro-naphthalen-2-yl)-piperazin-1-yl]-2-oxo-ethoxy}-cyclohexyl)-methyl-amino]-2-trifluoromethyl-benzonitrile] gave an inhibition at 5 µg/mL of at least 90%. `C[C@@H]1CN(Cc2nc3cc(F)ccc3s2)[C@@H](C)CN1C(=O)CO[C@H]1CC[C@H](Nc2ccc([N+](=O)[O-])c(C(F)(F)F)c2)CC1` [Compound 370, 1-[(2R,5S)-4-(5-fluoro-benzothiazol-2-ylmethyl)-2,5-dimethyl-piperazin-1-yl]-2-[4-(4-nitro-3-trifluoromethyl-phenylamino)-cyclohexyloxy]-ethanone] gave an inhibition at 5 µg/mL of at least 90%. In the case of `O=C(COc1ccc(Nc2ccc([N+](=O)[O-])c(C(F)(F)F)c2)cc1)N1CCN(C(=O)c2cc3cc(C(F)(F)F)ccc3o2)CC1` [Compound 191, 2-(4-[[4-nitro-3-(trifluoromethyl)phenyl]amino]phenoxy)-1-(4-[[5-(trifluoromethyl)-1-benzofuran-2-yl]carbonyl]piperazin-1-yl)ethan-1-one], the inhibition at 5 µg/mL is reported as at least 90%. For `CC1(CN2CCN(C(=O)CO[C@H]3CC[C@H](Nc4ccc([N+](=O)[O-])c(C(F)(F)F)c4)CC3)CC2)Cc2cc(F)ccc2O1` (stereo partly shown) [Compound 377, 1-[4-[(5-fluoro-2-methyl-3H-benzofuran-2-yl)methyl]piperazin-1-yl]-2-[4-[4-nitro-3-(trifluoromethyl)anilino]cyclohexoxy]ethanone], the inhibition at 5 µg/mL was at least 90%. `O=C(NCCO[C@H]1CC[C@H](Nc2ccc([N+](=O)[O-])c(C(F)(F)F)c2)CC1)C(=O)Nc1ccc2cc(Cl)ccc2c1` [Compound 174] showed an inhibition at 5 µg/mL of at least 90%. `O=C(CO[C@H]1CC[C@H](Nc2ccc([N+](=O)[O-])c(C(F)(F)F)c2)CC1)N1CCN(CCc2cc3cc(C(F)(F)F)ccc3o2)CC1` [Compound 324, 2-[4-[4-nitro-3-(trifluoromethyl)anilino]cyclohexoxy]-1-[4-[2-[5-(trifluoromethyl)benzofuran-2-yl]ethyl]piperazin-1-yl]ethanone] showed an inhibition at 5 µg/mL of at least 90%. `N#Cc1ccc(N[C@H]2CC[C@H](OCC(=O)N3CCN(Cc4oc5ccc(Cl)cc5c4Cl)CC3)CC2)cc1C(F)(F)F` [Compound 315, 4-(4-{2-[4-(3,5-dichloro-benzofuran-2-ylmethyl)-piperazin-1-yl]-2-oxo-ethoxy}-cyclohexylamino)-2-trifluoromethyl-benzonitrile] showed an inhibition at 5 µg/mL of at least 90%. Compound `N#Cc1ccc(N[C@H]2CC[C@H](OCC(=O)N3CCN(Cc4oc5ccc(F)cc5c4Cl)CC3)CC2)cc1C(F)(F)F` [Compound 313, 4-(4-{2-[4-(3-chloro-5-fluoro-benzofuran-2-ylmethyl)-piperazin-1-yl]-2-oxo-ethoxy}-cyclohexylamino)-2-trifluoromethyl-benzonitrile] has an inhibition at 5 µg/mL of at least 90%. With `O=C(CO[C@H]1CC[C@H](Nc2ccc([N+](=O)[O-])c(C(F)(F)F)c2)CC1)N1CCN(c2nc3cc(C(F)(F)F)ccc3o2)CC1` [Compound 400, 2-[4-(4-nitro-3-trifluoromethyl-phenylamino)-cyclohexyloxy]-1-[4-(5-trifluoromethyl-benzooxazol-2-yl)-piperazin-1-yl]-ethanone] the inhibition at 5 µg/mL was at least 90%. Work on `O=C(CO[C@H]1CC[C@H](Nc2ccc([N+](=O)[O-])c(C(F)(F)F)c2)CC1)N1CCN(Cc2cc3cc(F)cc(F)c3o2)CC1` [Compound 375] yielded an inhibition at 5 µg/mL of at least 90%. Work on `O=C(CO[C@H]1CC[C@H](Nc2ccc([N+](=O)[O-])c(C(F)(F)F)c2)CC1)N1CCN(c2ccc3cc(Br)ccc3c2)CC1` [Compound 268, 1-[4-(6-bromo-naphthalen-2-yl)-piperazin-1-yl]-2-[4-(4-nitro-3-trifluoromethyl-phenylamino)-cyclohexyloxy]-ethanone] yielded an inhibition at 5 µg/mL of at least 90%. `O=C(COC1CCC(Oc2ccc([N+](=O)[O-])c(C(F)(F)F)c2)CC1)N1CCN(Cc2nc3cc(C(F)(F)F)ccc3s2)CC1` (stereo not shown) [Compound 311, 2-[4-(4-nitro-3-trifluoromethyl-phenoxy)-cyclohexyloxy]-1-[4-(5-trifluoromethyl-benzothiazol-2-ylmethyl)-piperazin-1-yl]-ethanone] was tested, and the inhibition at 5 µg/mL was at least 90%. For `N#Cc1ccc(N[C@H]2CC[C@H](OCC(=O)N3CCN(C(=O)C4Cc5cc(Cl)ccc5O4)CC3)CC2)cc1C(F)(F)F` (stereo partly shown) [Compound 85, 4-(4-{2-[4-(5-chloro-2,3-dihydro-benzofuran-2-carbonyl)-piperazin-1-yl]-2-oxo-ethoxy}-cyclohexylamino)-2-trifluoromethyl-benzonitrile], the inhibition at 5 µg/mL was at least 90%. `O=C(CO[C@H]1CC[C@H](Nc2ccc([N+](=O)[O-])c(C(F)(F)F)c2)CC1)N1CCN(Cc2oc3ccc(Cl)cc3c2Cl)CC1` [Compound 316, 1-[4-(3,5-dichloro-benzofuran-2-ylmethyl)-piperazin-1-yl]-2-[4-(4-nitro-3-trifluoromethyl-phenylamino)-cyclohexyloxy]-ethanone] was tested, and the inhibition at 5 µg/mL was at least 90%. In the case of `O=C(CO[C@H]1CC[C@H](Nc2ccc([N+](=O)[O-])c(C(F)(F)F)c2)CC1)N1CCN(c2nc3cc(OC(F)(F)F)ccc3o2)CC1` [Compound 401, 2-[4-(4-nitro-3-trifluoromethyl-phenylamino)-cyclohexyloxy]-1-[4-(5-trifluoromethoxy-benzooxazol-2-yl)-piperazin-1-yl]-ethanone], the inhibition at 5 µg/mL is reported as at least 90%. For `O=C(NCCO[C@H]1CC[C@H](Nc2ccc([N+](=O)[O-])c(C(F)(F)F)c2)CC1)C(=O)Nc1ccc2cc(F)ccc2n1` [Compound 239, N^1-(6-fluoroquinolin-2-yl)-N^2-(2-(-4-(4-nitro-3-(trifluoromethyl)phenylamino)cyclohexyloxy)ethyl)oxalamide], the inhibition at 5 µg/mL was at least 90%. In the case of `C[C@@H]([C@@H]1Cc2cc(F)ccc2O1)N1CCN(C(=O)COC2CCC(Nc3ccc([N+](=O)[O-])c(C(F)(F)F)c3)CC2)CC1` (relative stereo) [Compound 260-10, 1-(4-((S)-1-((S)-5-fluoro-2,3-dihydrobenzofuran-2-yl)ethyl)piperazin-1-yl)-2-(4-(4-nitro-3-(trifluoromethyl)phenylamino)cyclohexyloxy)ethanone], the inhibition at 5 µg/mL is reported as at least 90%. `N#Cc1ccc(N[C@H]2CC[C@H](OCC(=O)N3CCN(c4nc5cc(C(F)(F)F)ccc5s4)CC3)CC2)cc1C(F)(F)F` [Compound 358, 4-(4-{2-oxo-2-[4-(5-trifluoromethyl-benzothiazol-2-yl)-piperazin-1-yl]-ethoxy}-cyclohexylamino)-2-trifluoromethyl-benzonitrile] gave an inhibition at 5 µg/mL of at least 90%.
